Results: PMC8820820, “Feasibility and safety of targeting mitochondria for cancer therapy – preclinical characterization of gamitrinib, a first-in-class, mitochondriaL-targeted small molecule Hsp90 inhibitor” (Cancer Biology & Therapy, 2022)

Key:
HCN4 = target: T1, HCN4 (Homo sapiens, UniProt Q9Y3Q4); assay: Ion channel screening; assay type: cell-based; conditions: 10 µM
T1 sequence (Q9Y3Q4 1-1203): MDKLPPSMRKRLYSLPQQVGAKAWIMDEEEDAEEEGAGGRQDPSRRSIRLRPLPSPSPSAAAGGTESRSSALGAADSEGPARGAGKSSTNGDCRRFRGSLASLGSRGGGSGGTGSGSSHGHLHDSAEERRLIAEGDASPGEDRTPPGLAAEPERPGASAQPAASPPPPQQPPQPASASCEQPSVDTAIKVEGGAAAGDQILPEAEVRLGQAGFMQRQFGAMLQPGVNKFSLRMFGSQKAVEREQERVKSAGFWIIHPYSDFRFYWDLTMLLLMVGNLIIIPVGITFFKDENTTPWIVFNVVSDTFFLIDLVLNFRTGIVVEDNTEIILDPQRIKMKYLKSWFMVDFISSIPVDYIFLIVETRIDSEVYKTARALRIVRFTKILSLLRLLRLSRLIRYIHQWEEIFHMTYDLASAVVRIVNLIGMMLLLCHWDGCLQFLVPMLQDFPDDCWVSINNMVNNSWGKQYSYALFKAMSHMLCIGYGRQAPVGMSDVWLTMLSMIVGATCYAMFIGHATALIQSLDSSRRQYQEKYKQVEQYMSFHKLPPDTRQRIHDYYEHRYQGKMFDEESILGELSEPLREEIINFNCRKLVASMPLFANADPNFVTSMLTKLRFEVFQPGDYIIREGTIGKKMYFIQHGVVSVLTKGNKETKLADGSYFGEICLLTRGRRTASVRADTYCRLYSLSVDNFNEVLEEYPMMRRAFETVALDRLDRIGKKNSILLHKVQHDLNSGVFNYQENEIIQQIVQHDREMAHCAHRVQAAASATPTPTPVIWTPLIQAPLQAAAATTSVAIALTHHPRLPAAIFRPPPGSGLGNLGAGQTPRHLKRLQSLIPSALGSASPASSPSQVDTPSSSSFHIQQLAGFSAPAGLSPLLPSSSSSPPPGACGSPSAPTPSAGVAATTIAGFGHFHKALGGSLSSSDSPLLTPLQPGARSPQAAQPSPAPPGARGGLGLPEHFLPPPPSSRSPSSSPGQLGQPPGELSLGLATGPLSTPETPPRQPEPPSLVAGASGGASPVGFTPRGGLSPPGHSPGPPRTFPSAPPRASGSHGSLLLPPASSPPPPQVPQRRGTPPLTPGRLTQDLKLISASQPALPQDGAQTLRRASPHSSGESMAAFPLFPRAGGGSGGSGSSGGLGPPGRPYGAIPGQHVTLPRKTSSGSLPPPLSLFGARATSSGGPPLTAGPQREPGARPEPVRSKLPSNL
Description: Ion channel screening. […] The parameters measured were the maximum inward current evoked on stepping to -20 mV from the 1st and 26th pulse. Human Kv4.3/KChIP2 currents were evoked from a holding potential of -80 mV by a series of four 500 msec pulses to 0 mV using a 1000 msec interval between pulses. The parameter measured was the amplitude of the outward current 50 msec after the onset of the 4th voltage step to 0 mV. […] Human Kv1.5 currents were evoked by a single pulse from a holding potential of -80 mV to a potential of 0 mV for 4 sec before returning to -80 mV. The parameters measured were the maximum amplitude of outward currents evoked at the beginning of the voltage pulse and at the end of the voltage step from -80 mV to 0 mV. Human KCNQ1/minK currents were evoked by a single pulse delivered from a holding potential of -80 mV to +60 mV for 4 sec before returning to -80 mV. The parameter measured was the maximum outward current evoked on stepping to +60 mV from the holding potential of -80 mV. hERG currents were evoked by a three-pulse protocol where voltage was first stepped to +40 mV for two sec from a holding potential of –80 mV to inactivate hERG channels. […] The parameter measured was the maximum inward current evoked upon stepping to -110 mV from the holding potential of -30 mV. […]

[1] = Toxicokinetics in rats, twice weekly IV for 29 d; assay type: in vivo, Sprague-Dawley rats
Experimental: (§1) Ninety-six male and female Sprague-Dawley rats (6–7 weeks old) were received from Charles River Laboratories (Raleigh, NC) catheterized via a femoral vein prior to arrival. Animals were acclimated in individual stainless-steel cages with access to water and Certified Rodent Diet #2014 C (Envigo RMS) ad libitum for 6 d prior to study initiation. Environmental controls were set to maintain a temperature range of 20 to 26°C, a relative humidity range of 30 to 70%, eight or greater air changes/h, and a 12-h light/dark cycle. Animals were infused with sterile isotonic (0.9%) saline for a minimum of 4 d (0.20 mL/h for males or 0.15 mL/h for females) during the predose phase. At initiation of dosing, animals were 8 to 9 weeks old, and body weights ranged from 283 to 341 g for males and 188 to 238 g for females. Gamitrinib formulated as indicated above was administered by IV infusion on d 4, 8, 11, 15, 18, 22, 25, and 29 of the dosing phase at 1, 10, 25 mg/kg/dose and dose volume of 5 mL/kg. The vehicle control administered with the same schedule contained 2.5% DMSO, 0.125% polysorbate 80, 0.031% lecithin, 1.25% sucrose and 4.375% dextrose. Animals were checked twice daily throughout the duration of the study for mortality, abnormalities, and signs of pain or distress. Detailed observations were conducted for each animal up to two times during the predose phase and for each toxicity animal prior to dosing on d 1, 8, 15, 22, and 29 of the dosing phase and on d 1, 7, and 14 of the recovery phase. Blood samples were collected on d. 1, 4 and 29 of the dosing phase 5 min, 1 h and 24 h post-dose, maintained on chilled cryoracks and centrifuged within 1 h of collection. Tissue samples harvested from each animal were embedded in paraffin, sectioned, and slides were prepared and stained with hematoxylin and eosin.

Sprague-Dawley rats = assay: Toxicity in Sprague-Dawley rats; assay type: in vivo; conditions: for reduction in mean body weights: male rats, fully recoverable, not adverse
Experimental: as §1

tumor = conditions: mice; cited from earlier work
[2] = Phase I, cytochrome P450-mediated human liver microsome metabolism; conditions: 0.5 µM, human liver microsomes

COC1C=CC=C(C)C(=O)NC2=CC(=O)C(NCCCCCC[P+](c3ccccc3)(c3ccccc3)c3ccccc3)=C(CC(C)CC(OC)C(O)C(C)C=C(C)C1OC(N)=O)C2=O.F[P-](F)(F)(F)(F)F (stereo not drawn) [Gamitrinib]
inhibition of HCN4 currents (HCN4): −0.2 ± 3.7%
drug accumulation ([1]; Cmax and AUC0–24 d 4 vs d 29): no drug accumulation after multiple doses
AUC0–24 ([1]; rat, in vivo, 1 mg/kg): 174 ng·h/mL
AUC0–24 ([1]; rat, in vivo, 10 mg/kg): 1300 ng·h/mL
CLSS ([1]; rat, in vivo, iv, 25 mg/kg): 84.83 to 131.33 mL/min/kg
VSS ([1]; rat, in vivo, iv, 25 mg/kg): 12.2 to 90.0 L/kg
reduction in mean body weights (Sprague-Dawley rats; 10 mg/kg/dose): −5.5%
reduction in mean body weights (Sprague-Dawley rats; 25 mg/kg/dose): −5.7%
urinalysis and ophthalmic findings (Sprague-Dawley rats; rats): No effects on urinalysis or ophthalmic changes
serum urea nitrogen (UN) and creatinine concentrations (Sprague-Dawley rats; rats, 25 mg/kg/dose): Minimally to mildly higher
kidney microscopic findings (Sprague-Dawley rats; rats, 25 mg/kg/dose, persisted to end of recovery): tubular degeneration/regeneration
non-observed adverse effect level (NOAEL) (Sprague-Dawley rats; rats, IV twice weekly for 29 d): 1 mg/kg/dose
severely toxic dose in 10% of the animals (STD 10) (Sprague-Dawley rats; rats, IV twice weekly for 29 d): 10 mg/kg/dose
alterations in clinical chemistry parameters (Sprague-Dawley rats; rats, highest dose level tested): mildly to moderately higher neutrophil, and platelet (Plts) counts, minimally prolonged partial thromboplastin time (PT), lower albumin, higher globulin, and alkaline phosphatase concentrations
Gamitrinib-related clinical observations (Sprague-Dawley rats; rats, ≥10 mg/kg/dose): inguinal swelling, piloerection, hypoactivity, and sensitivity to touch at the infusion site
microscopic findings at infusion site (Sprague-Dawley rats; rats, ≥10 mg/kg/dose, both sexes, persisted through recovery): mixed cell inflammation at the catheter/infusion site
Gamitrinib-related mortality (Sprague-Dawley rats; toxicity animals, 10 mg/kg/dose): one male
Gamitrinib-related mortality (Sprague-Dawley rats; toxicity animals, 25 mg/kg/dose, severe inflammation and marked hemorrhage at infusion site): two males, one female
Gamitrinib-related mortality (Sprague-Dawley rats; toxicokinetic animals, 10 mg/kg/dose): two toxicokinetic females
Gamitrinib-related mortality (Sprague-Dawley rats; toxicokinetic animals, 25 mg/kg/dose): one toxicokinetic female
therapeutically effective dose (tumor): 10 mg/kg
elimination rate constant (k) [2]: 0.041
half-life (t½) [2]: 16.7 min
intrinsic clearance (CLint) [2]: 3.30 mL/min/g
